Measured values published in ChEMBL document CHEMBL1146261, “Design of potent inhibitors of human beta-secretase. Part 2” (Bioorg Med Chem Lett, 2007).

Experiments:
Beta-secretase 1 [1] = biological target: T1, Beta-secretase 1 (Homo sapiens, UniProt P56817); assay: Inhibition of BACE expressed in HEK293 cells; assay type: cell-based
Beta-secretase 1 [2] = biological target: T1, Beta-secretase 1; assay: Inhibition of BACE

T1 sequence (P56817 whole entry): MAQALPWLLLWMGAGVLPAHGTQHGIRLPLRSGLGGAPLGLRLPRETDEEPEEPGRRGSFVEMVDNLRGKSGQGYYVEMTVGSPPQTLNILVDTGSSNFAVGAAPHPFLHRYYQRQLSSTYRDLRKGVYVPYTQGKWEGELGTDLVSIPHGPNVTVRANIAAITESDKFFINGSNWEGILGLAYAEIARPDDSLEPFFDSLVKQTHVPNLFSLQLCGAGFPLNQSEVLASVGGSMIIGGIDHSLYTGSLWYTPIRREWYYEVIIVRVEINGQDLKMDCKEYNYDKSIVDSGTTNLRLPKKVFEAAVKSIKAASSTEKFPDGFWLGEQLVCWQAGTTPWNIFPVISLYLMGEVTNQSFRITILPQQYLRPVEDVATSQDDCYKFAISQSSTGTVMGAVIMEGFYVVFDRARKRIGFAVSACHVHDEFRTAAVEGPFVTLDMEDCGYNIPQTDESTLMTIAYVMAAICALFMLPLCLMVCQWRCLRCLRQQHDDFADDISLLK

| Structure (SMILES) | EC50 (Beta-secretase 1 [1]) | IC50 (Beta-secretase 1 [2]) |
| --- | --- | --- |
| CCCC(CCC)S(=O)(=O)C[C@@H](NC(=O)c1cccnc1)C(=O)N[C@@H](Cc1cc(F)cc(F)c1)[C@H](O)CNCc1cccc(CC)c1 | 1 nM | 1 nM |
| CCCCS(=O)(=O)CC(NC(=O)OCCC#N)C(=O)N[C@@H](Cc1cc(F)cc(F)c1)[C@H](O)CNCc1cccc(CC)c1 (some centres undefined) | 5 nM | 8 nM |
| CCCC(CCC)S(=O)(=O)C[C@@H](NC(=O)c1ccc(C(F)(F)F)cc1)C(=O)N[C@@H](Cc1cc(F)cc(F)c1)[C@H](O)CNCc1cccc(CC)c1 | 76 nM | 53 nM |
| CCCC(CCC)S(=O)(=O)C[C@@H](NC(=O)c1cccc(Cl)c1)C(=O)N[C@@H](Cc1cc(F)cc(F)c1)[C@H](O)CNCc1cccc(CC)c1 | 48 nM | 5 nM |
| CCCC(CCC)S(=O)(=O)C[C@@H](NC(=O)c1cccc(O)c1)C(=O)N[C@@H](Cc1cc(F)cc(F)c1)[C@H](O)CNCc1cccc(CC)c1 | 9 nM | 2 nM |
| CCCCS(=O)(=O)C[C@@H](NC(=O)c1cccnc1)C(=O)N[C@@H](Cc1cc(F)cc(F)c1)[C@H](O)CNCc1cccc(CC)c1 | 1 nM | 2 nM |
| CCCCS(=O)(=O)C[C@@H](NC(=O)c1ncc[nH]1)C(=O)N[C@@H](Cc1cc(F)cc(F)c1)[C@H](O)CNCc1cccc(CC)c1 | 4 nM | 4 nM |
| CCCC(CCC)S(=O)(=O)C[C@@H](NC(=O)c1ccccc1C)C(=O)N[C@@H](Cc1cc(F)cc(F)c1)[C@H](O)CNCc1cccc(CC)c1 | 59 nM | 15 nM |
| CCCCS(=O)(=O)C[C@@H](NC(=O)OC)C(=O)N[C@@H](Cc1cc(F)cc(F)c1)[C@H](O)CNCc1cccc(CC)c1 | 2 nM | 4 nM |
| CCCC(CCC)S(=O)(=O)C[C@@H](NC(=O)OCc1ccncc1)C(=O)N[C@@H](Cc1cc(F)cc(F)c1)[C@H](O)CNCc1cccc(CC)c1 | 5 nM | 3 nM |
| CCCCS(=O)(=O)C[C@@H](NC(=O)COC)C(=O)N[C@@H](Cc1cc(F)cc(F)c1)[C@H](O)CNCc1cccc(CC)c1 | 4 nM | 22 nM |
| CCCCS(=O)(=O)C[C@@H](NC(=O)c1cnccn1)C(=O)N[C@@H](Cc1cc(F)cc(F)c1)[C@H](O)CNCc1cccc(CC)c1 | 0.2 nM | 4 nM |
| CCCCS(=O)(=O)C[C@@H](NC(=O)c1cc(C)n[nH]1)C(=O)N[C@@H](Cc1cc(F)cc(F)c1)[C@H](O)CNCc1cccc(CC)c1 | 4 nM | 4 nM |
| CCCCS(=O)(=O)C[C@@H](NC(=O)SC1CCOC1)C(=O)N[C@@H](Cc1cc(F)cc(F)c1)[C@H](O)CNCc1cccc(CC)c1 (some centres undefined) | 4 nM | 15 nM |
| CCCCS(=O)(=O)C[C@@H](NC(=O)OCc1ccncc1)C(=O)N[C@@H](Cc1cc(F)cc(F)c1)[C@H](O)CNCc1cccc(CC)c1 | 2 nM | 11 nM |
| CCCC(CCC)S(=O)(=O)C[C@@H](NC(=O)c1ccc(C)cc1)C(=O)N[C@@H](Cc1cc(F)cc(F)c1)[C@H](O)CNCc1cccc(CC)c1 | 19 nM | 4 nM |
| CCCC(CCC)S(=O)(=O)C[C@@H](NC(=O)OCc1cccnc1)C(=O)N[C@@H](Cc1cc(F)cc(F)c1)[C@H](O)CNCc1cccc(CC)c1 | 5 nM | 4 nM |

Continued by falling IC50 (Beta-secretase 1 [2]), values first:

| EC50 (Beta-secretase 1 [1]) | IC50 (Beta-secretase 1 [2]) | Structure (SMILES) |
| --- | --- | --- |
| 14 nM | 495 nM | CCCC(CCC)S(=O)(=O)C[C@@H](NC(=O)c1ccccc1)C(=O)N[C@@H](Cc1cc(F)cc(F)c1)[C@H](O)CNCc1cccc(CC)c1 |
| 12 nM | 27 nM | CCCCS(=O)(=O)C[C@@H](NC(=O)OCCNC(C)=O)C(=O)N[C@@H](Cc1cc(F)cc(F)c1)[C@H](O)CNCc1cccc(CC)c1 |
| 6 nM | 13 nM | CCCCS(=O)(=O)C[C@@H](NC(C)=O)C(=O)N[C@@H](Cc1cc(F)cc(F)c1)[C@H](O)CNCc1cccc(CC)c1 |
| 4 nM | 10 nM | CCCCS(=O)(=O)C[C@@H](NC(=O)C1CC1)C(=O)N[C@@H](Cc1cc(F)cc(F)c1)[C@H](O)CNCc1cccc(CC)c1 |
| 0.6 nM | 10 nM | CCCCS(=O)(=O)C[C@@H](NC(=O)OCc1cccnc1)C(=O)N[C@@H](Cc1cc(F)cc(F)c1)[C@H](O)CNCc1cccc(CC)c1 |
| 24 nM | 5 nM | CCCCS(=O)(=O)C[C@@H](NC(=O)c1cnccc1O)C(=O)N[C@@H](Cc1cc(F)cc(F)c1)[C@H](O)CNCc1cccc(CC)c1 |
| 1 nM | 5 nM | CCCCS(=O)(=O)C[C@@H](NC(=O)c1ccncc1)C(=O)N[C@@H](Cc1cc(F)cc(F)c1)[C@H](O)CNCc1cccc(CC)c1 |
|  | 4 nM | CCCCS(=O)(=O)C[C@@H](NC(=O)OCC(F)(F)F)C(=O)N[C@@H](Cc1cc(F)cc(F)c1)[C@H](O)CNCc1cccc(CC)c1 |
|  | 3 nM | CCCC(CCC)S(=O)(=O)C[C@@H](NC(=O)OCc1ccccc1)C(=O)N[C@@H](Cc1cc(F)cc(F)c1)[C@H](O)CNCc1cccc(CC)c1 |
| 2 nM | 3 nM | CCCC(CCC)S(=O)(=O)C[C@@H](NC(=O)OC)C(=O)N[C@@H](Cc1cc(F)cc(F)c1)[C@H](O)CNCc1cccc(CC)c1 |
| 11 nM | 2 nM | CCCC(CCC)S(=O)(=O)C[C@@H](NC(=O)c1ccc(OC)cc1)C(=O)N[C@@H](Cc1cc(F)cc(F)c1)[C@H](O)CNCc1cccc(CC)c1 |
